Assays:
AKR1C3 = target: T1, AKR1C3 (Homo sapiens, UniProt P42330); assay: AKR1C3 protein degradation in 22Rv1 prostate cancer cells (Western blot); format: cell-based; parameters: 22Rv1 prostate cancer cells that express high levels of AKR1C3; host or cells: 22Rv1
T1 sequence (P42330 1-323): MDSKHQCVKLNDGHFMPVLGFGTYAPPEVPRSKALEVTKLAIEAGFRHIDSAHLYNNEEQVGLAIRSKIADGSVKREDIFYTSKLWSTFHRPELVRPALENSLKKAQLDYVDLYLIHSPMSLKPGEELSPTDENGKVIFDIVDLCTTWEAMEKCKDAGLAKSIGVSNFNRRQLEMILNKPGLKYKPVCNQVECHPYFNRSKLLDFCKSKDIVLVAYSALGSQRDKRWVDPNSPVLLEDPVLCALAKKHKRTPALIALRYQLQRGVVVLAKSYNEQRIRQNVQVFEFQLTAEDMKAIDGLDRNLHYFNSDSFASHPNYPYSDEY
Procedure: (§1) Protein Expression via Western Blot. 22Rv1 cells were seeded in a 6-well plate and incubated overnight. Next day, the cells were treated with varying concentrations of 6 (1 and 10 μM) and 5 (0.5, 1, 10, 50, 100, 250, and 500 nM; 1, 10, and 50 μM) for 24 hours and 5 (1 and 10 nM) at different time points (0, 2, 4, 6, 12, 16, 24, 48, and 72 h). Whole cell lysates were extracted in RIPA lysis buffer containing protease inhibitor and EDTA (Fisher Scientific, PI78440). Protein concentrations in each sample was estimated following BCA assay (Pierce™ BCA protein assay kit, Fisher Scientific, PI23227) as per the manufacturer's protocol. Proteins were standardized using RIPA lysis buffer with Laemelli SDS sample buffer (Thermo Scientific, AAJ61337AC) and heated at 1000C for 15 minutes. The proteins were resolved on a 4-12% premade gel (Invitrogen, NW04120BOX) at 60-90 V in 20× Bolt™ MES SDS running buffer (Fisher Scientific, B000202) and transferred onto a nitrocellulose membrane (Invitrogen, IB23001) using iBlot 2. The membranes were blocked with 2.5% non-fat dry milk (Bio-Rad, 1706404) for 1 h, and the membrane was incubated overnight on a rocking platform at 4 °C with the desired primary antibodies against AKR1C3 (mouse mAb, 1:200, Sigma, A6229), AKR1C1/C2 (rabbit mAb, 1:500, Abcam, ab179448), ARv7 (rabbit mAb, 1:500, Abcam, ab198394) and actin (mouse mAb, 1:1,000, ThermoFisher, MA5-11869). The membranes were washed three times, 10 minutes each, with 1×Tris-buffered saline (TBST, Bio-Rad, 1706435) in 0.1% Tween 20, on a rocking platform wherein they were incubated with rabbit anti-mouse IgG (ThermoFisher, 31450) or goat anti-rabbit IgG (Jackson ImmunoResearch, 111-035-003) secondary antibody (1:1,000) horseradish peroxidase conjugate for 1 hour. The membranes were again washed three times with 1×TBST, upon which they were exposed to LI-COR WesternSure PREMIUM chemiluminescent substrate (Fisher Scientific, 50-489-552) and developed in a dark room with Konica Minolta equipment. Bands were quantified by densitometry using ImageJ software and fold change in AKR1C3, AKR1C1/C2, and ARv7 protein expression was determined based on actin controls. […]
The AKR1C3 degradation effect of PROTAC 5 was screened across a range of concentrations to identify a suitable treatment protocol. 22Rv1 cells were treated with increasing concentrations of […], DMSO or lenalidomide 6 at 1 μM and 10 μM for 24 hours, and the degradation profile was determined by Western blot analysis with antibody for AKR1C3.

AKR1C1/C2 = AKR1C1/C2 protein degradation in 22Rv1 prostate cancer cells (Western blot); format: cell-based
Procedure: as §1, with “The membranes were again washed three times with 1×TBST, upon which they were exposed to LI-COR WesternSure PREMIUM chemiluminescent substrate (Fisher Scientific, 50-489-552) and developed in a dark room with Konica Minolta equipment.” left out

Structure (SMILES): O=C(O)/C=C/c1cc(C(=O)NCc2ccc(OCc3cn(CCOCCOCC(=O)Nc4cccc5c4CN(C4CCC(=O)NC4=O)C5=O)nn3)cc2)cc(-c2ccccc2)c1 (centres unmarked) [Compound IA, (E)-3-(5-((4-((1-(2-(2-(2-((2-(2,6-dioxopiperidin-3-yl)-1-oxoisoindolin-4-yl)amino)-2-oxoethoxy)ethoxy)ethyl)-1H-1,2,3-triazol-4-yl)methoxy)benzyl)carbamoyl)-[1,1 ? biphenyl]-3-yl)acrylic acid]
- mean AKR1C3 degradation (AKR1C3; 0.5 nM, 24 h, in words): no degradation
- time course of AKR1C3 levels (AKR1C3; 1 nM, 24 through 72 hours post-treatment, in words): time-dependent decrease in AKR1C3 levels
- onset of decrease in AKR1C3 levels (AKR1C3; 1 nM, post-treatment): 24 h
- degradation of AKR1C3 (in words) (AKR1C3; 10 nM, 0-72 h): significant degradation
- AKR1C3 degradation after proteasome inhibitor pretreatment (AKR1C3; 10 nM, 2 hour pretreatment with MG132 (3 μM), in words): effectively blocked
- AKR1C3 protein expression (AKR1C3; 10 nM, 4 hours of treatment, in words): effectively reduced AKR1C3 protein expression
- AKR1C3 degradation compared with Compound 3 (AKR1C3; 10 nM, 72 hour incubation, in words): outperformed Compound 3
- onset of AKR1C3 degradation (AKR1C3; 10 nM, post-treatment): 4 h
- AKR1C3 expression (AKR1C3; 1-50 μM, 24 h, in words): increased AKR1C3 expression
- Dmax at 0.01 µM (AKR1C3; 22Rv1, 10 nM, 72 hours, read-out: maximal degradation of AKR1C3): ~75%
- AKR1C3 expression (AKR1C3; 100-500 nM, 24 h, in words): increased AKR1C3 expression
- degradation of AKR1C1/C2 compared with AKR1C3 (AKR1C1/C2; 10 nM, in words): to a lesser extent than AKR1C3
- degradation of AKR1C1/C2 (in words) (AKR1C1/C2; 10 nM, time-dependent): trend of degradation of AKR1C1/C2 in a time-dependent manner
- DC50 (AKR1C1/C2; 72 hours, read-out: AKR1C1/C2 DC50 (half-maximal degradation concentration)): 49 nM

Source: patent US20260364181A1, “AKR1C3 Targeted Heterobifunctional Small Molecule Proteolysis Targeting Chimeras” (BOARD OF REGENTS OF THE UNIVERSITY OF NEBRASKA, priority 2022, published 2026)
